System: T1, MpIspS
T1 construct: gene IspS
Details: 50 mM MOPS pH 6.0, 5 mM Mn^2+, 50 °C, 10 min; fit below 15 mM DMAPP

Km: 8.11 mM
Compound: CC(C)=CCOP(=O)(O)OP(=O)(O)O [DMAPP]

From PMC6003189, “Molecular and biochemical characterization of a novel isoprene synthase from Metrosideros polymorpha” (BMC Plant Biology, 2018)
